IC50 and GI50 data for 24 compounds are collected here from ChEMBL document CHEMBL1140461, “Design and synthesis of thiazole-5-hydroxamic acids as novel histone deacetylase inhibitors” (Bioorg Med Chem Lett, 2007).

The target in one test is Histone deacetylase. Put plainly: Inhibition of HDAC activity in HeLa cell nuclear extract by fluorescent assay. The class given is protein assay, Homo sapiens.
For another test, the system named is MCF7. Put plainly: Antiproliferative activity against human MCF7 cells. The class given is functional.

For orientation: IC50 means the point on the concentration scale where inhibition reaches its midpoint. Read a low IC50 as higher potency. As usually defined, the GI50 is the concentration that inhibits growth by half. As for `CN1CCN(c2ncc(C(=O)NO)s2)CC1`, the IC50 at Histone deacetylase is more than 100 µM. Also, the GI50 with MCF7 was more than 100 µM.

At Histone deacetylase, `O=C(NO)c1cnc(N2CCN(Cc3ccccc3)CC2)s1` registered an IC50 of more than 100 µM. This compound also displayed a GI50 in the test on MCF7 of 4 µM.

Take `O=C(/C=C/c1cnc(N2CCN(S(=O)(=O)c3ccc(F)cc3)CC2)s1)NO`: the IC50 against Histone deacetylase was 4.7 µM. The compound also returned a 50% growth inhibitory concentration (GI50) with MCF7 of 2.5 µM.

For `O=C(NO)c1cnc(N2CCN(S(=O)(=O)c3ccc4ccccc4c3)CC2)s1`, at Histone deacetylase, the IC50 was 0.22 µM. In the test with MCF7, this compound returned a GI50 of 2 µM.

`Cc1ccc(S(=O)(=O)N2CCN(c3ncc(C(=O)NO)s3)CC2)cc1` displayed a 50% inhibitory concentration (IC50) at Histone deacetylase of 0.09 µM. The compound further showed a 50% growth inhibitory concentration (GI50) in the test with MCF7 of 0.35 µM.

At Histone deacetylase, `O=C(/C=C/c1cnc(N2CCN(S(=O)(=O)c3ccc(C(F)(F)F)cc3)CC2)s1)NO` showed an IC50 of 15 µM. The compound also displayed a concentration for 50% growth inhibition (GI50) in the test with MCF7 of 3 µM.

`O=C(NO)c1cnc(N2CCN(S(=O)(=O)c3ccc(-c4ccccc4)cc3)CC2)s1` yielded an IC50 against Histone deacetylase of 0.2 µM. Also, the 50% growth inhibitory concentration (GI50) in the test with MCF7 stood at 1.8 µM.

Compound `O=C(/C=C/c1cnc(N2CCN(S(=O)(=O)c3ccccc3)CC2)s1)NO` yielded an IC50 against Histone deacetylase of 0.44 µM. Further, the concentration for 50% growth inhibition (GI50) with MCF7 was determined as 3 µM.

For `COc1ccc(S(=O)(=O)N2CCN(c3ncc(C(=O)NO)s3)CC2)cc1OC`, the IC50 against Histone deacetylase came to 0.07 µM. The same compound returned a concentration for 50% growth inhibition (GI50) in the test with MCF7 of 2 µM.

In turn, `O=C(NO)c1cnc(N2CCN(S(=O)(=O)c3ccc([N+](=O)[O-])cc3)CC2)s1` had an IC50 against Histone deacetylase of 0.4 µM. In addition, the GI50 in the test with MCF7 was 10 µM.

In the case of `CC(=O)N1CCN(c2ncc(C(=O)NO)s2)CC1`, the IC50 against Histone deacetylase amounted to 2.8 µM. Besides, the concentration for 50% growth inhibition (GI50) with MCF7 was more than 100 µM.

As for `O=C(NO)c1cnc(N2CCN(CCc3ccccc3)CC2)s1`, at Histone deacetylase, the half-inhibitory concentration (IC50) was more than 100 µM. In the test with MCF7, this compound showed a GI50 of more than 100 µM.

Compound `O=C(NO)c1cnc(N2CCN(C(=O)c3ccccc3)CC2)s1` displayed an IC50 on Histone deacetylase of 3.5 µM. The same compound returned a GI50 in the test on MCF7 of 40 µM.

Compound `O=C(NO)c1cnc(N2CCN(C(=O)Cc3ccccc3)CC2)s1` showed a half-inhibitory concentration (IC50) at Histone deacetylase of 32 µM. Further, the 50% growth inhibitory concentration (GI50) with MCF7 is 20 µM.

Consider `O=C(/C=C/c1cnc(N2CCN(S(=O)(=O)c3ccc(OC(F)(F)F)cc3)CC2)s1)NO`, for which, at Histone deacetylase, the IC50 stood at 3.2 µM. Further, the GI50 in the test with MCF7 worked out at 6 µM.

`O=C(/C=C/c1cnc(N2CCN(S(=O)(=O)c3ccc([N+](=O)[O-])cc3)CC2)s1)NO` displayed a 50% inhibitory concentration (IC50) at Histone deacetylase of 1.6 µM. Besides, it took 5 µM to inhibit growth in the test on MCF7 by half (GI50).

Regarding `COc1ccc(S(=O)(=O)N2CCN(c3ncc(/C=C/C(=O)NO)s3)CC2)cc1OC`, on Histone deacetylase, the IC50 was determined as 0.16 µM. This compound also had a GI50 in the test on MCF7 of 4 µM.

For the compound `O=C(NO)c1cnc(N2CCN(S(=O)(=O)c3ccc(C(F)(F)F)cc3)CC2)s1`, the IC50 on Histone deacetylase turned out to be 2.6 µM. Also, the GI50 with MCF7 was determined as 4 µM.

With `O=C(/C=C/c1cnc(N2CCN(S(=O)(=O)c3ccc4ccccc4c3)CC2)s1)NO`, the IC50 against Histone deacetylase is 0.05 µM. For the same compound, in the test with MCF7, the GI50 was determined as 0.7 µM.

For the compound `O=C(NO)c1cnc(N2CCN(S(=O)(=O)c3ccccc3)CC2)s1`, the IC50 on Histone deacetylase came to 0.57 µM. In the test with MCF7, this compound yielded a GI50 of 10 µM.

In the case of `O=C(NO)c1cnc(N2CCN(S(=O)(=O)c3ccc(F)cc3)CC2)s1`, on Histone deacetylase, the concentration for half-maximal inhibition (IC50) amounted to 0.15 µM. The compound also gave a GI50 in the test on MCF7 of 3.5 µM.

In the case of `O=C(NO)c1cnc(N2CCN(S(=O)(=O)c3ccc(OC(F)(F)F)cc3)CC2)s1`, the IC50 against Histone deacetylase was determined as 1.2 µM. The same compound returned a GI50 in the test on MCF7 of 4 µM.

Turning to `O=C(/C=C/c1cnc(N2CCN(S(=O)(=O)c3ccc(-c4ccccc4)cc3)CC2)s1)NO`, the half-maximal inhibitory concentration (IC50) against Histone deacetylase stood at 11 µM. In addition, in the test with MCF7, the GI50 was 15 µM.

On to `Cc1ccc(S(=O)(=O)N2CCN(c3ncc(/C=C/C(=O)NO)s3)CC2)cc1`, for which, at Histone deacetylase, the half-maximal inhibitory concentration (IC50) came to 0.55 µM. In the test on MCF7, the GI50 worked out at 2 µM.
